Test results published in patent US11413278B2, “Compounds and methods for promoting stress resistance” (priority 2015, dated 2022).
Entries after “also recorded” stand apart in the source; their conditions may differ. Read-outs that look alike come from different tables or passages of the source.

Tests used:
[1] = tested on: phosphorylated γH2A.X and TP53BP1; experiment: DNA damage marker analysis (immuno-staining); settings: for activity at 10 µM: Homo sapiens, WI-38, 24 h; for P = Potential DNA-damaging / R = Potential DNA damaging: human, 24 h
How it was run: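 WI-38 cells were cultured 24 h, then treated with compounds for 24 h; H2O2 (700 μM, 3 h) and doxorubicin (300 nM, 24 h) served as DNA-damage controls. After fixation, cells were immunostained for phospho-γH2A.X (Ser-139) and phospho-TP53BP1 (Ser-1778), counterstained with DAPI, and imaged by automated high-content microscopy.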

[2] = tested on: C. elegans; experiment: C. elegans lifespan assays (liquid and plate); type: in vivo, Caenorhabditis elegans; settings: for ILS at 66 µM / ILS at 60 µM: Caenorhabditis elegans; for Extension of C. elegans' lifespan (qualitative): in at least 3 to 4 trials, group range ~10% to ~50%; for O = Life span- extending scores in worms: score scale 0 to 2, 4 to 6 independent trials; for M = Lifespan-extending scores in worms: summary score
[3] = tested on: WI-38 cells; experiment: MMS resistance assay; type: cell-based, human; settings: for fold induction at 10 µM: Homo sapiens, 12 h, normalized ATP measurement; for Assay 3: MMS-resistant / Assay 5: Triple resistant: YES/NO; for Assay 3: MMS-resistant: * indicates partial; for Assay 5: Triple resistant: H2O2, cadmium and MMS; for Triple resistant: H2O2, CdCl2 and MMS
How it was run: (§1)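 WI-38 cells were given compounds at five final concentrations (0.25–20 μM) in triplicate, followed by cadmium or MMS for 12 h. For MMS, medium was switched from OptiMEM+10% FBS to serum-free DMEM+2% BSA when compounds were added, 24 h before stressor. Two independent assays were run, analysed by global variance t-test.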

[4] = tested on: WI-38 cells; experiment: CdCl2 (cadmium) resistance assay; type: cell-based, human; settings: for fold induction at 10 µM: Homo sapiens, 12 h, normalized ATP measurement; for Assay 4: H2O2- & Cd-resistant / Assay 2: Cadmium-resistant: YES/NO; for Assay 2: Cadmium-resistant: * indicates partial
How it was run: as §1

[5] = biological target: T1, human PARP1 (Homo sapiens, UniProt P09874); experiment: PARP inhibitor assay (HT Fluorescent Homogeneous PARP Inhibition Assay Kit); type: biochemical; settings: for L = PARP inhibition: score; for Inhibition of PARP1: 10 μM, in vitro
T1 construct: purchased Trevigen
T1 sequence (P09874 whole entry): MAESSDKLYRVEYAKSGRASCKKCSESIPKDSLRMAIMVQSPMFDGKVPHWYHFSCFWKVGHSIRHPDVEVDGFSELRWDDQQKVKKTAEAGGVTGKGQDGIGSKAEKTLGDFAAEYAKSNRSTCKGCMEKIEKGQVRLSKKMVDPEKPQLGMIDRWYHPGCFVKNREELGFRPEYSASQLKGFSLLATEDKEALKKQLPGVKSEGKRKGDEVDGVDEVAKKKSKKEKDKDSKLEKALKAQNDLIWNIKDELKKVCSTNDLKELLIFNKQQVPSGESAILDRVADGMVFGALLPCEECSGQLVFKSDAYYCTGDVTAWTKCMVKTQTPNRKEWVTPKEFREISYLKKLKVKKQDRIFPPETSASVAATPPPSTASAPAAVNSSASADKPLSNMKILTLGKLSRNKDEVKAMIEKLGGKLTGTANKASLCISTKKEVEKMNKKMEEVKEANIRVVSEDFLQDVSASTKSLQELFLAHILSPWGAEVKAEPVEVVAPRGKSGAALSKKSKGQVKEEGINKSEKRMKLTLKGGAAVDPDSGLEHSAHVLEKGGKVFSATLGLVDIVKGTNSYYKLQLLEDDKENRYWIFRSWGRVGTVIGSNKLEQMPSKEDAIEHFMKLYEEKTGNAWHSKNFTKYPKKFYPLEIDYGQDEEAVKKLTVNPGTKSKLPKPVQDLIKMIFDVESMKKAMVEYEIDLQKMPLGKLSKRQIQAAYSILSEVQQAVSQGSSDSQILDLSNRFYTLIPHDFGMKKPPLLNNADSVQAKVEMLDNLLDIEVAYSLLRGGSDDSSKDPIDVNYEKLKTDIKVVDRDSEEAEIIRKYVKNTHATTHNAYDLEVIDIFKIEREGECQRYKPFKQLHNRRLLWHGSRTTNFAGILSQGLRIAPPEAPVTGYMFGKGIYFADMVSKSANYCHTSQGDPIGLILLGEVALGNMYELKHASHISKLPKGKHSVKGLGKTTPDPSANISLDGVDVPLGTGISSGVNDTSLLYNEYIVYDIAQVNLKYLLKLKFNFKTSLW
How it was run: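 Human PARP1 with NAD and activated DNA, compounds at 10 μM final, 30 min at room temperature in dark. Resazurin/diaphorase cycling mix then added for 1 hr in dark before stop buffer; fluorescent homogeneous kit read-out.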

[6] = read-out: Experiment 1, H2A.X-P DNA damage foci staining (no H2O2 stress treatment), at 10 uM
[7] = read-out: Experiment 2, H2A.X-P DNA damage foci staining (no H2O2 stress treatment), at 10 uM
[8] = read-out: Experiment 2, H2A.X-P DNA damage foci staining (under H2O2 stress treatment), at 10 uM
[9] = read-out: Experiment 2, TP53BP1-P DNA damage foci staining (no H2O2 stress treatment), at 10 uM
[10] = read-out: Experiment 2, TP53BP1-P DNA damage foci staining (under H2O2 stress treatment), at 10 uM
[11] = Assay 2(z), 1.0 × 10^9 bacteria/ml, wild type + FuDR (2012 July), read-out: Lifespan assay in liquid
[12] = Assay 3(aa), 2.5 × 10^9 bacteria/ml, wild type + FuDR, read-out: Lifespan assay in liquid
[13] = Assay 4(ab), 2.0 × 10^10 bacteria/ml, CF512 worms, no FuDR, read-out: Lifespan assay on plates
[14] = Exp. 1, WI-38 cells, read-out: Exp. 1, under MMS stress treatment, at 10 uM (fold change)
[15] = Exp. 2, WI-38 cells, read-out: Exp. 2, under MMS stress treatment, at 10 uM (fold change)
[16] = score in summary of 38 core set hits
[17] = Exp. 1, WI-38 cells, read-out: Exp. 1, under Cd2Cl2 stress treatment, at 10 uM (fold change)
[18] = Exp. 2, WI-38 cells, read-out: Exp. 2, under Cd2Cl2 stress treatment, at 10 uM (fold change)
[19] = WI-38 cells, 10 μM, both stressors
[20] = in liquid, wild type, with FuDR, 1.0 × 10^9 bacteria/ml, read-out: relative change of mean lifespan vs control, Trial 1
[21] = in liquid, wild type, with FuDR, 2.5 × 10^9 bacteria/ml, read-out: relative change of mean lifespan vs control, Trial 2
[22] = on plate, CF512 temperature-sensitive sterile animals, without FuDR, 2.0 × 10^10 bacteria/ml, read-out: relative change of mean lifespan vs control, Trial 3

Row | SMILES | activity at 10 µM [1, 6] | activity at 10 µM [1, 7] | activity at 10 µM [1, 8] | activity at 10 µM [1, 9] | activity at 10 µM [1, 10] | P = Potential DNA-damaging [1] | R = Potential DNA damaging [1] | ILS at 66 µM [2, 11] | ILS at 66 µM [2, 12] | ILS at 66 µM [2, 13] | O = Life span- extending scores in worms [2] | M = Lifespan-extending scores in worms [2] | fold induction at 10 µM [3, 14] | fold induction at 10 µM [3, 15] | B = MMS resistant [3, 16] | B = MMS resistant ([3]; summary score) | D = Triple resistant ([3]; summary score) | fold induction at 10 µM [4, 17] | fold induction at 10 µM [4, 18] | A = Cadmium resistant [4, 16] | also measured
1 | O=[N+]([O-])c1ccccc1S(=O)(=O)Nc1cccc2cccnc12 [Gr-3A] | 139% | 338% | 143% | 334% | 66.1% | 1 | 1 | 33.4% | 14.2% | 16.3% | 2 (2 for observed in more than 2 trials) | 2 (2 for observed in more than 2 trials) | 1 | 0.86 | 0 | 1 | 2 | 1.93 | 1.64 | 1 | ILS at 66 µM ([2]; Assay 5(ac), 1.0 × 10^11 bacteria/ml, CF512 worms, no FuDR, read-out: Lifespan assay on plates): 8.4%; Extension of C. elegans' lifespan (qualitative) [2]: could extend animal's lifespan; Assay 3: MMS-resistant [3]: YES; Assay 5: Triple resistant [3]: YES; CdCl2-resistant [4]: YES; H2O2- & CdCl2-resistant [4]: YES; CdCl2-resistant ([4]; WI-38 cells, 10 μM): YES; H2O2- & CdCl2-resistant [4, 19]: YES; Assay 4: H2O2- & Cd-resistant [4]: YES; Assay 2: Cadmium-resistant [4]: YES; A = Cadmium resistant ([4]; summary score): 1; C = H2O2- & Cd-resistant ([4]; summary score): 1; L = PARP inhibition [5]: 0
2 | O=C(Nc1cccc(C(F)(F)F)c1)c1ccc([N+](=O)[O-])o1 [Gr-1E] | 162% | 107% | 151% | 289% | 475% | 0 | 0 | 17.4% | 6.3% | 13.8% | 2 (2 for observed in more than 2 trials) | 2 (2 for observed in more than 2 trials) | 0.72 | 1.21 | 0 | 0 | 0 | 6.69 | 8.82 | 1 | ILS at 60 µM [2, 20]: 17.4%; ILS at 60 µM [2, 21]: 6.3%; ILS at 60 µM [2, 22]: 13.8%; Extension of C. elegans' lifespan (qualitative) [2]: could extend animal's lifespan; Assay 3: MMS-resistant [3]: NO *; Assay 5: Triple resistant [3]: YES; CdCl2-resistant [4]: YES; H2O2- & CdCl2-resistant [4]: YES; CdCl2-resistant ([4]; WI-38 cells, 10 μM): YES; H2O2- & CdCl2-resistant [4, 19]: YES; Assay 4: H2O2- & Cd-resistant [4]: YES; Assay 2: Cadmium-resistant [4]: YES; A = Cadmium resistant ([4]; summary score): 1; C = H2O2- & Cd-resistant ([4]; summary score): 1; L = PARP inhibition [5]: 0
3 | CCc1ccc(Oc2nc3ccccn3c(=O)c2/C=C(\C#N)C(=O)NCc2ccco2)cc1 [Gr-5B] | 100% | 128% | 168% | 223% | 540% | 0 | 0 | 37.2% | 2% | 1.7% | 0 | 0 | 1.13 | 1.36 | 0 | 0 | 0 | 1.29 | 1.36 | 0 | ILS at 60 µM [2, 20]: 37.2%; ILS at 60 µM [2, 21]: 2%; ILS at 60 µM [2, 22]: 1.7%; A = Cadmium resistant ([4]; summary score): 0; C = H2O2- & Cd-resistant ([4]; summary score): 0; L = PARP inhibition [5]: 0
4 | Oc1ncnc2sc3c(c12)CCC3 [O14] | 116% | 85.3% | 221% | 159% | 254% | 0 | 0 | 13.7% | 5.8% | 11.3% | 2 (2 for observed in more than 2 trials) | 2 (2 for observed in more than 2 trials) | 0.84 | 3.45 | 0 | 1 | 2 | 2.2 | 2.69 | 1 | ILS at 60 µM [2, 20]: 13.7%; ILS at 60 µM [2, 21]: 5.8%; ILS at 60 µM [2, 22]: 11.3%; Lifespan extension of C. elegans ([2]; across independent trials): ≥ 10%; Extension of C. elegans' lifespan (qualitative) [2]: could extend animal's lifespan; Trials with lifespan extension ([2]; positive of total trials): 3 of 3; Assay 3: MMS-resistant [3]: YES; Assay 5: Triple resistant [3]: YES; CdCl2-resistant [4]: YES; H2O2- & CdCl2-resistant [4]: YES; CdCl2-resistant ([4]; WI-38 cells, 10 μM): YES; H2O2- & CdCl2-resistant [4, 19]: YES; Assay 4: H2O2- & Cd-resistant [4]: YES; Assay 2: Cadmium-resistant [4]: YES; A = Cadmium resistant ([4]; summary score): 1; C = H2O2- & Cd-resistant ([4]; summary score): 1; Inhibition of PARP1 [5]: inhibitors of PARP1; also recorded: identified PARP inhibitor; L = PARP inhibition [5]: 1
5 | CC(C)(C)c1ccc(OCC(=O)Nc2ccc3c4c(cccc24)C(=O)NC3=O)cc1 [O22] | 101% | 121% | 210% | 154% | 510% | 0 | 0 | -24.5% | -2.3% | -52.8% | 0 | 0 | 3.22 | 14.8 | 1 | 1 | 2 | 5.61 | 14.7 | 1 | ILS at 60 µM [2, 20]: -24.5%; ILS at 60 µM [2, 21]: -2.3%; ILS at 60 µM [2, 22]: -52.8%; MMS-resistant [3]: YES; Multiplex resistance to cadmium, MMS and H2O2 ([3]; 0.25 μM to 20 μM, repurchased molecules): reproducibly conferred multiplex resistance; Triple resistant [3]: YES; MMS-resistant ([3]; WI-38 cells, 10 μM): YES; Triple resistant ([3]; WI-38 cells, 10 μM): YES; Assay 3: MMS-resistant [3]: YES; Assay 5: Triple resistant [3]: YES; CdCl2-resistant [4]: YES; H2O2- & CdCl2-resistant [4]: YES; CdCl2-resistant ([4]; WI-38 cells, 10 μM): YES; H2O2- & CdCl2-resistant [4, 19]: YES; Assay 4: H2O2- & Cd-resistant [4]: YES; Assay 2: Cadmium-resistant [4]: YES; A = Cadmium resistant ([4]; summary score): 1; C = H2O2- & Cd-resistant ([4]; summary score): 1; Inhibition of PARP1 [5]: confirmed as PARP inhibitors; also recorded: inhibitors of PARP1; L = PARP inhibition [5]: 1
